Experimental findings from the Biogen ADME set (Fang et al. 2023) are described below.

Structures are written as SMILES. ≈ marks a conversion by molar mass, not a printed value. A value given as a limit tells only on which side of the number the result lay.

The conditions of this data set: for aqueous solubility: pH 6.8.

As to `COCc1cc(-c2nc(CCc3ccccc3)n[nH]2)ccc1OC`, the MDR1-MDCK efflux ratio was determined as 2.29; the intrinsic clearance, human liver microsomes is 70.4 mL/min/kg; the intrinsic clearance, rat liver microsomes is 1100 mL/min/kg; the aqueous solubility (usually the concentration that dissolves in the medium under given conditions) was 24.9 µg/mL (≈ 77.1 µM).
Regarding `C[C@H]1NC(=O)N(CCc2nc(C(F)(F)F)cs2)C1=O`, the MDR1-MDCK efflux ratio was 1.6; the intrinsic clearance, human liver microsomes turned out to be 5.83 mL/min/kg; the intrinsic clearance, rat liver microsomes was 24.8 mL/min/kg.
In the same order, the values of `Cc1cc(F)ccc1-c1nc(CCn2c(C)nc3ccccc32)no1` are 0.696, 398 mL/min/kg and 1800 mL/min/kg.
Take `O=C(NCC1CCC1)c1ccc(-n2ccnc2)nn1`: the MDR1-MDCK efflux ratio stood at 0.616; the intrinsic clearance, human liver microsomes was 8.32 mL/min/kg; the intrinsic clearance, rat liver microsomes is 50.3 mL/min/kg; the aqueous solubility was determined as 34.1 µg/mL (≈ 133 µM).
`CCOc1ccc(NC(=O)c2ccc3c(c2)NC(=O)CO3)cc1` showed an intrinsic clearance, human liver microsomes of no more than 4.74 mL/min/kg and an intrinsic clearance, rat liver microsomes of 459 mL/min/kg.
For the compound `O=C1CC(N2CCCN(c3ccc(C(F)(F)F)cn3)CC2)C(=O)N1c1ccccc1` (stereo unspecified), the MDR1-MDCK efflux ratio turned out to be 0.761; the intrinsic clearance, human liver microsomes came to 270 mL/min/kg; the intrinsic clearance, rat liver microsomes stood at 1280 mL/min/kg.
Take `Cc1cc(OCC(=O)N2CCC(n3c(=O)[nH]c4ccccc43)CC2)ccc1Cl`: the intrinsic clearance, human liver microsomes was found to be 432 mL/min/kg and the intrinsic clearance, rat liver microsomes was 1450 mL/min/kg.
In the case of `CC1(c2ccn[nH]2)CCN(Cc2ccco2)CC1`, the MDR1-MDCK efflux ratio stood at 0.904; the intrinsic clearance, human liver microsomes is no more than 4.74 mL/min/kg; the intrinsic clearance, rat liver microsomes is 76.4 mL/min/kg; the aqueous solubility is 21 µg/mL (≈ 85.5 µM).
For the compound `Cc1cccc(NCCc2cc(F)cc3c2OCOC3)n1`, the MDR1-MDCK efflux ratio stood at 0.374; the intrinsic clearance, human liver microsomes was 397 mL/min/kg; the intrinsic clearance, rat liver microsomes was 5180 mL/min/kg.
For the compound `CS(=O)(=O)NC[C@H]1CC[C@H](Nc2nc3c(s2)CCSc2ccccc2-3)CC1`, the MDR1-MDCK efflux ratio came to 1.81; the intrinsic clearance, human liver microsomes came to 21.5 mL/min/kg; the intrinsic clearance, rat liver microsomes was found to be 247 mL/min/kg.
For `COc1ncnc2c1CN(Cc1c[nH]nc1-c1ccc(F)cc1)CC2`, the MDR1-MDCK efflux ratio was 7.03; the intrinsic clearance, human liver microsomes came to 70.7 mL/min/kg; the intrinsic clearance, rat liver microsomes was determined as 210 mL/min/kg; the aqueous solubility is 28.4 µg/mL (≈ 83.5 µM).
Turning to `Cc1ccc(-c2noc(CCC(=O)N3CCCC3(C)C)n2)cc1F`, the MDR1-MDCK efflux ratio worked out at 0.535; the intrinsic clearance, human liver microsomes worked out at 228 mL/min/kg; the intrinsic clearance, rat liver microsomes was determined as 3380 mL/min/kg; the aqueous solubility came to 40.8 µg/mL (≈ 123 µM).
Consider `NCC(=O)Nc1ccc2[nH]c(=O)[nH]c2c1`, for which the aqueous solubility stood at 104 µg/mL (≈ 506 µM).
For the compound `O=C(Nc1ccc2sccc2c1)N1CCCN(C(=O)Oc2ccccc2)CC1`, the MDR1-MDCK efflux ratio worked out at 1.31; the intrinsic clearance, human liver microsomes turned out to be 78.3 mL/min/kg; the intrinsic clearance, rat liver microsomes worked out at 765 mL/min/kg; the aqueous solubility is 37.9 µg/mL (≈ 95.7 µM).
`O=C(O)/C=C/c1ccc(Cn2ccnc2)cc1`: the MDR1-MDCK efflux ratio is 3; the intrinsic clearance, human liver microsomes is no more than 4.74 mL/min/kg; the intrinsic clearance, rat liver microsomes was no more than 10.7 mL/min/kg; the aqueous solubility was 50.6 µg/mL (≈ 222 µM).
Regarding `CC(=O)N[C@H]1CCN(C(=O)N[C@H](C)C(c2ccccc2)c2ccccc2)C1`, the MDR1-MDCK efflux ratio stood at 113; the intrinsic clearance, human liver microsomes worked out at 63.6 mL/min/kg; the intrinsic clearance, rat liver microsomes is 825 mL/min/kg.
In the same order, the values of `O=C(Nc1ccc(N2CCCC2)cn1)c1ccc(-c2cnco2)cc1` are 0.338, 27.2 mL/min/kg and 190 mL/min/kg.
`N#Cc1cccc(CN2CCOC[C@H](O)C2)c1` showed an intrinsic clearance, human liver microsomes of 7.9 mL/min/kg; an intrinsic clearance, rat liver microsomes of 12 mL/min/kg; an aqueous solubility of 21.1 µg/mL (≈ 90.9 µM).
In the same order, the values of `O=C(C1CC1c1ccccc1F)N1CCC(n2c(=O)[nH]c3ccccc32)CC1` (stereo unspecified) are 47.2 mL/min/kg, 1190 mL/min/kg and 49.9 µg/mL (≈ 131 µM).
Regarding `NC(=O)CC1CCN(c2ncccn2)CC1`, the MDR1-MDCK efflux ratio worked out at 1.01; the intrinsic clearance, human liver microsomes was no more than 4.74 mL/min/kg; the intrinsic clearance, rat liver microsomes is no more than 10.7 mL/min/kg; the aqueous solubility was found to be 58.2 µg/mL (≈ 264 µM).
As to `N#CCCCN1CCC(c2c[nH]c3ccccc23)CC1`, the MDR1-MDCK efflux ratio turned out to be 0.46; the intrinsic clearance, human liver microsomes was found to be 23.8 mL/min/kg; the intrinsic clearance, rat liver microsomes was found to be 1730 mL/min/kg; the aqueous solubility was determined as 54.6 µg/mL (≈ 204 µM).
`CC(=O)N(C)[C@@H]1CO[C@@H]2CCN(C[C@]3(O)CC[C@@H](C(C)(C)C)CC3)C[C@@H]2C[C@@]1(C)O`: the MDR1-MDCK efflux ratio came out at 23.5; the intrinsic clearance, human liver microsomes stood at 65 mL/min/kg; the intrinsic clearance, rat liver microsomes turned out to be 276 mL/min/kg.
As to `Cc1ccc(Cn2ccn(-c3ccc(F)c(F)c3)c(=O)c2=O)cc1`, the MDR1-MDCK efflux ratio was determined as 0.671 and the aqueous solubility was found to be 0.35 µg/mL (≈ 1.07 µM).
As for `Cc1nc2cc(=O)[nH]n2c(C)c1CC(=O)OC1CCCCC1`, the MDR1-MDCK efflux ratio amounted to 1.09; the intrinsic clearance, human liver microsomes was 10.5 mL/min/kg; the intrinsic clearance, rat liver microsomes stood at 649 mL/min/kg.
The compound `CS(=O)(=O)Cc1cc(-c2ccccc2)on1` showed an aqueous solubility of 31.3 µg/mL (≈ 132 µM).
On to `O=C(Nc1ccccc1-n1ccnc1)c1cccs1`, for which the MDR1-MDCK efflux ratio is 0.74; the intrinsic clearance, human liver microsomes was determined as 11 mL/min/kg; the intrinsic clearance, rat liver microsomes came to 39.2 mL/min/kg; the aqueous solubility came to 77.2 µg/mL (≈ 287 µM).
For `CN(CCc1ccccn1)C(=O)Nc1nncs1`, the MDR1-MDCK efflux ratio came out at 1.63; the intrinsic clearance, human liver microsomes is no more than 4.74 mL/min/kg; the intrinsic clearance, rat liver microsomes is no more than 10.7 mL/min/kg; the aqueous solubility was determined as 45.6 µg/mL (≈ 173 µM).
In the same order, the values of `O=C1NCC2(C/C=C/CCOc3ccccc31)CCN(C(=O)c1ccc3[nH]nnc3c1)CC2` are 45.8, 42.8 mL/min/kg, 165 mL/min/kg and 24.4 µg/mL (≈ 54.9 µM).
Turning to `Cc1cc2ccccc2n1CC(=O)N(C)Cc1cnn(C)c1`, the MDR1-MDCK efflux ratio is 2.14 and the aqueous solubility was 47.5 µg/mL (≈ 160 µM).
Regarding `COCC1(CNS(=O)(=O)c2ccccc2)CCC1`, the MDR1-MDCK efflux ratio came to 0.696; the intrinsic clearance, human liver microsomes was 30.7 mL/min/kg; the intrinsic clearance, rat liver microsomes was determined as 996 mL/min/kg.
As to `Cn1cc(CN2CCCC(c3ccnc(Nc4cnccn4)c3)C2)cn1` (stereo unspecified), the MDR1-MDCK efflux ratio amounted to 6.36; the intrinsic clearance, human liver microsomes was found to be 7.74 mL/min/kg; the intrinsic clearance, rat liver microsomes turned out to be 179 mL/min/kg.
In the case of `NCCn1cc(NC(=O)c2ccccc2)cn1`, the intrinsic clearance, human liver microsomes is no more than 4.74 mL/min/kg; the intrinsic clearance, rat liver microsomes is no more than 10.7 mL/min/kg; the aqueous solubility was 79.1 µg/mL (≈ 343 µM).
For the compound `Cc1sc2nc(CN3CCC(C)CC3)nc(N3CCN(c4cnccn4)CC3)c2c1C`, the MDR1-MDCK efflux ratio was determined as 9.31; the intrinsic clearance, human liver microsomes is 228 mL/min/kg; the intrinsic clearance, rat liver microsomes turned out to be 1980 mL/min/kg; the aqueous solubility is 42 µg/mL (≈ 96 µM).
In the same order, the values of `Cc1cc(Nc2ccccn2)cc(C2CCCN(CC(=O)Nc3ncc(C)s3)C2)n1` (stereo unspecified) are 36.3, 59.6 mL/min/kg, 956 mL/min/kg and 65.5 µg/mL (≈ 155 µM).
Take `O=C(CCc1cccs1)Nc1ccc(N2CCCC2)cn1`: the aqueous solubility is 1.18 µg/mL (≈ 3.91 µM).
Regarding `COc1ccccc1-n1ncc2c(=O)[nH]c(SC(C)c3ccccc3)nc21` (stereo unspecified), the intrinsic clearance, human liver microsomes came out at 224 mL/min/kg and the intrinsic clearance, rat liver microsomes was 1180 mL/min/kg.
Turning to `O=C(CSc1ccccn1)N1CCSc2ccccc21`, the MDR1-MDCK efflux ratio worked out at 0.586; the intrinsic clearance, human liver microsomes worked out at 426 mL/min/kg; the intrinsic clearance, rat liver microsomes was 6400 mL/min/kg.
Take `O=C(c1ccc2c(c1)CCCC2)N1CCOCC1c1ccn[nH]1` (stereo unspecified): the MDR1-MDCK efflux ratio is 4.04.
Regarding `O=C(NC12CCCC1NCC2)c1ccc(-c2cn[nH]c2)cc1` (stereo unspecified), the MDR1-MDCK efflux ratio was 2.29; the fraction unbound, human plasma stood at 1; the intrinsic clearance, human liver microsomes is no more than 4.74 mL/min/kg.
On to `CC1CCN(CCNC(=O)c2ccncc2)CC1`, for which the MDR1-MDCK efflux ratio was 2.3; the intrinsic clearance, human liver microsomes is no more than 4.74 mL/min/kg; the intrinsic clearance, rat liver microsomes is 490 mL/min/kg; the aqueous solubility stood at 34.2 µg/mL (≈ 138 µM).
With `CCn1c(=O)c2cc(OC)c(OC)cc2n(Cc2ccc(Cl)cc2)c1=O`, the aqueous solubility was determined as 0.4 µg/mL (≈ 1.07 µM).
For `CC(C)(CNc1cnn(CCO)c1)c1ccccc1`, the intrinsic clearance, human liver microsomes turned out to be 8.4 mL/min/kg and the intrinsic clearance, rat liver microsomes was 324 mL/min/kg.
In the case of `Clc1cc2c(NC3CCCC3)nnc(-c3ccncc3)c2cc1Cl`, the MDR1-MDCK efflux ratio was determined as 0.729 and the aqueous solubility worked out at 0.19 µg/mL (≈ 0.529 µM).
For `CNc1ccc(/C=C/c2ccc(OCCOCCOCCF)nc2)cc1`, the MDR1-MDCK efflux ratio worked out at 0.533; the intrinsic clearance, human liver microsomes was 253 mL/min/kg; the intrinsic clearance, rat liver microsomes stood at 564 mL/min/kg.
Turning to `N#Cc1ccc(C(=O)Nn2cnnc2)cc1`, the intrinsic clearance, human liver microsomes is no more than 4.74 mL/min/kg; the intrinsic clearance, rat liver microsomes is no more than 10.7 mL/min/kg; the aqueous solubility was determined as 18 µg/mL (≈ 84.3 µM).
Take `CSC1(CNC(=O)N2CCC=C(c3ccccc3)C2)CCOCC1`: the MDR1-MDCK efflux ratio was 1.61; the intrinsic clearance, human liver microsomes was 120 mL/min/kg; the intrinsic clearance, rat liver microsomes was found to be 2750 mL/min/kg.
For `COc1cccc([C@@H](C)n2cnc3cn(C)nc3c2=O)c1`, in that order: 1.44, no more than 4.74 mL/min/kg and 67.2 mL/min/kg.
`O=c1c2cccn2c2ccccc2n1CCCN1CCC(c2ccc(Cl)cc2)CC1`: the MDR1-MDCK efflux ratio was 5.19; the intrinsic clearance, human liver microsomes came out at 183 mL/min/kg; the intrinsic clearance, rat liver microsomes was 1330 mL/min/kg; the aqueous solubility stood at 19.8 µg/mL (≈ 47 µM).
For `O=C(Cc1cccs1)NCc1ccccc1F`, in that order: 0.641, 20.9 mL/min/kg, 133 mL/min/kg and 34.8 µg/mL (≈ 140 µM).
In the same order, the values of `O=C(NCc1cnn(-c2ccccc2)c1)C1CCC1` are 0.723, no more than 4.74 mL/min/kg, 117 mL/min/kg and 31.7 µg/mL (≈ 124 µM).
